Values quoted from earlier work, collected in publication PMC3048208 (British Journal of Cancer, 2011).

Set-up: method as in Kelly et al, 2005; Steele et al, 2008
Conditions: ref Kelly et al, 2005; Steele et al, 2008; cited from earlier work

Row | Compound | half-life [h]
1 | O=C(/C=C/c1cccc(S(=O)(=O)Nc2ccccc2)c1)NO [belinostat] | 1 to 2
2 | O=C(CCCCCCC(=O)Nc1ccccc1)NO [vorinostat, suberoylanilide hydroxamic acid] | 1 to 2
